Tests used:
HDAC6 = assay: ERα-dependent CAT reporter with LCoR and HDAC6 cotransfection in MCF-7 cells; format: cell-based, human; conditions: estradiol 10 nM, TSA 500 nM, trapoxin 50 nM
Protocol: All cells were cultured under the recommended conditions. For immunocytochemistry, COS-7 cells grown on collagen IV-treated microscope slides in 6-well plates in DMEM, supplemented with 10% FBS were transfected in medium without serum with 12.5 μl of lipofectamine 2000 (Invitrogen, Burlington, Ont.) containing 1 μg each of pSG5/LCoR and HA-Flag-HDAC6/pcDNA3. Medium was replaced 24 h after transfection and cells were prepared for immunocytochemistry after 48 h as described below. For immunoprecipitation of tagged proteins, MCF-7 cells in 100 mm dishes were transfected with 10 μl of lipofectamine containing 10 μg of pSG5 vectors containing Flag-LCoR, Flag-m1, Flag-m2 or Flag-m1+2. For analysis of the effects of HDACs 3 or 6 on LCoR corepression, COS-7 cells (60-70% confluent) grown in DMEM without phenol red, supplemented with 10% FBS on 6-well plates were transfected in medium without serum with lipofectamine 2000 (Invitrogen, Burlington, Ontario, Canada) with 100 ng of ERα expression vectors as indicated, 300 ng of LCoR/pSG5, 300 ng of HA-HDAC3/pCDNA3.1 or […], 250 ng of ERE3-TATA-CAT reporter plasmid, 250 ng of internal control vector pCMV-βgal, and pBluescript carrier DNA to 4 μg. Medium was replaced 18 hr after transfection by a medium containing charcoal-stripped serum and ligand (10 nM) for 30 hr, as indicated. […]

GR = target: T1, GR (Homo sapiens, UniProt P04150); assay: Transient transfection luciferase reporter, GR transactivation in COS-7 cells; format: cell-based; conditions: TSA 3 μM, COS-7 cells
T1 construct: expressed in transfected cells; host or cells: COS-7
T1 sequence (P04150 1-777): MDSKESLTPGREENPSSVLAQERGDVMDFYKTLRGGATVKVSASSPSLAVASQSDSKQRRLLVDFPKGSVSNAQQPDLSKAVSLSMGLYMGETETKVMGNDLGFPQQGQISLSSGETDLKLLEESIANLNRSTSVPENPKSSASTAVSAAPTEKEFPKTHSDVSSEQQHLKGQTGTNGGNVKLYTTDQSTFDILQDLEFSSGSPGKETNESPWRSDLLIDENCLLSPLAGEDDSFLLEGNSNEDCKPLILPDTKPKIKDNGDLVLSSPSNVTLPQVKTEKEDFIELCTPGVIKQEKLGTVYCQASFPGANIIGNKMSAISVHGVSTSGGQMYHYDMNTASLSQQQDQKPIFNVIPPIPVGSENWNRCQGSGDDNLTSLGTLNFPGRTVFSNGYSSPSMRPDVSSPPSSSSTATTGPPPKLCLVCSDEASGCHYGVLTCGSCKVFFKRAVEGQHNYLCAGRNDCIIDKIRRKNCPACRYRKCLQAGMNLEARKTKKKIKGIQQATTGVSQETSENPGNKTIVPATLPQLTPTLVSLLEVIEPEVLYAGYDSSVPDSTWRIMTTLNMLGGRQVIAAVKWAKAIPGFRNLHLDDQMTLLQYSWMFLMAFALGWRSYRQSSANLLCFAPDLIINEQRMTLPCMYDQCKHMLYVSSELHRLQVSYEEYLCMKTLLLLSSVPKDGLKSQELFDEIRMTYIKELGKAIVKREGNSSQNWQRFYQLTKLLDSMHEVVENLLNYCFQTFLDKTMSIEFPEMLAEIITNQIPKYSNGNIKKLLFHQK
Protocol: All cell lines were cultured under the recommended conditions. COS-7 cells grown in […] in DMEM without phenol red, supplemented with 10% FBS were transfected in medium without serum with lipofectamine 2000 (Invitrogen, Burlington, Ont.) with 100 ng of nuclear receptor expression vectors as indicated, 200 ng of TIF-2 or TIF-2.1, as indicated, 250 ng of reporter plasmid, 250 ng of infemal control vector pCMV-βgal, and various concentrations of LCoR/pSG5 or LCoR-LSKAA/pSG5 expression vectors and pSG5 carrier. Medium was replaced 24 h after transfection by a medium containing charcoal-stripped serum and ligand (100 nM) and TSA (3 μM) for 18 h, as indicated. Cells were harvested in 200 […] of reporter lysis buffer (Promega).
COS-7 cells were cotransfected with expression vectors for ERα HEG0 (A and C) or GR (D) or PR (F) or VDR (H), ERE3-TATA-pXP2 (A and C), GRE5/pXP2 (D and F) or VDRE3tk/pXP2 (H) luciferase reporter vectors, pCMV-β-gal as internal control, and LCoR/pSG5 or LSKAA/pSG5 expression vectors as indicated. Cells were treated with 10^−7M of hormones (solid bars) or vehicle (open bars). Normalized luciferase activities (RLU) are the means±SEM from at least 3 experiments. […] Cells were transfected as in FIG. 5A with LCoR, TIF-2 or TIF2.1 as indicated. […]

In the case of CC(/C=C/C(=O)NO)=C\[C@@H](C)C(=O)c1ccc(N(C)C)cc1 [TSA, trichostatin A], the “effect on HDAC6 repression / enhancement of LCoR corepression of ERα transactivation” value (HDAC6) is reported as “abolished” and the “effect on LCoR-dependent repression of GR function” value (GR) is reported as “completely abolished”.

Source: patent US20070054353A1, “Nuclear receptor transcriptional corepressor and uses thereof” (priority 2002, published 2007)
